Measured values taken from patent publication US20260265256A1 (IMPACT THERAPEUTICS (SHANGHAI), INC., priority 2023, published 2026).

Columns and labels:
[1] = biological target: recombinant poly(ADP-ribose) polymerase 2 (PARP2) (Homo sapiens, UniProt Q9UGN5); experiment: PARP2 chemiluminescent assay; assay type: biochemical; details: PARP2 enzyme activity, chemiluminescence, 40 ng enzyme/well
Experimental: The solution of recombinant poly(ADP-ribose) polymerase 1 and 2 (PARP1 and PARP2) (40 ng enzyme/well) and the compounds to be tested were mixed, respectively. The solutions were added to a 96-well plate coated with histone mixture, incubated at room temperature for 1 h, then 50 μL 0.3 ng/mL Streptavidin-HRP was added to each well. The plates were incubated for 30 minutes at room temperature. Finally, the plates were treated with streptavidin-HRP followed by addition of the ELISA ECL substrate to produce chemiluminescence that can be measured using a chemiluminescence reader. Inhibition of the tested compound to PARP1/2 enzyme activity was calculated according to the following formula. [formula] IC50 value is obtained by fitting the s-shaped dose response curve equation by using XL Fit software.

MDA-MB-436 cells = experiment: Growth inhibition assay against BRCA mutant human breast cancer MDA-MB-436 cell line (CCK-8, 7 days); assay type: cell-based; details: 168 h, MDA-MB-436, 7 days, read-out: IC50 (nM), proliferation of human breast cancer cells MDA-MB-436
Experimental: The cells were cultured in complete medium (DMEM medium+10% FBS+Insulin+glutathione). When the confluence reached about 80%, cells were digested and gently dispensed from the bottom of the dish with a 1 mL pipette. Cell suspension was collected and centrifuged at 500 rpm for 3 min. The supernatant was discarded, and the cell pellet were re-suspended in complete medium. The cells were seeded into a culture dish at an appropriate proportion, and then cultured in a 5% CO2 incubator at 37° C. The assay was carried out when the cells were in optimum condition and the confluence was reached 80%. Cells in the logarithmic growth phase were taken to centrifugate, and the culture supernatant was removed. The cells were resuspended in refresh complete medium and counted. The resuspended cells were seeded at 3000/well in a 96-well plate and incubated at 37° C., 5% CO2 incubator overnight. […] The solution was mixed by oscillation. 0.10% DMSO was used as the control.
The next day, the 96-well plate inoculated with cells was taken out from the incubator, and the culture supernatant was removed. Then fresh medium of 195 uL/well and 5 μL/well of 40× test compound solution as mentioned above were added into the 96 well plate, respectively. Finally, the plate was incubated for 7 days in a 37° C. 5% CO2 incubator. The medium containing compound was changed on the fourth day. After 7 days, 20 μL of CCK-8 was added to each well and shaken gently, then was cultured for 4 hours. The plate was shaken for 5 min after incubation, the absorbance values of 450 nm or 650 nm wavelengths were recorded respectively (OD=absorbance value of 450 nm−absorbance value of 650 nm) by using the multifunction readout instrument.
Data were analyzed by software GraphPad Prism 6.0. The inhibitory activity of compounds on cell proliferation was plotted using cell survival rate against the compound concentration as coordinates. Cell survival rate %=(ODcompound−ODbackground)/(ODDMSO−ODbackground)×100.
Table 2 summarizes the inhibitory effect data (IC50) of the compounds on the proliferation of human breast cancer cells MDA-MB-436.

Chain of recombinant poly(ADP-ribose) polymerase 2 (PARP2) (Q9UGN5 whole entry): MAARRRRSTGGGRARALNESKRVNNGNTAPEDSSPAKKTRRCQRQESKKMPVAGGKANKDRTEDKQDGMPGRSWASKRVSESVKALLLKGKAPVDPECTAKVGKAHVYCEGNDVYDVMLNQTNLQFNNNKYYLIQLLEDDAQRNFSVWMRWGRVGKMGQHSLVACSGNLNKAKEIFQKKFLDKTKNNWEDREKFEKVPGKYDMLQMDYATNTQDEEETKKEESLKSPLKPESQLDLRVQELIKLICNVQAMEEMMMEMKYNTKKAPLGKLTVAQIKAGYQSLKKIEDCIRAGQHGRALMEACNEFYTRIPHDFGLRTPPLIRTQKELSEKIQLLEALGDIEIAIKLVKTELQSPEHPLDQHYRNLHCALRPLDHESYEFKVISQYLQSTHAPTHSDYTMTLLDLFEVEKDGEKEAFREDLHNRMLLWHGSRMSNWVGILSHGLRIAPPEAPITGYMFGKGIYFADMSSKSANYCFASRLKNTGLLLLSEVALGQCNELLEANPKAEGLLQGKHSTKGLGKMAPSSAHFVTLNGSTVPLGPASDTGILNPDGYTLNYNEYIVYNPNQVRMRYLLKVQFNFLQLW

Row | IC50 [1] [nM] | IC50 (MDA-MB-436 cells) [nM] | Structure (SMILES)
1 | > 10000 | > 100 | CNC(=O)c1ccc(-n2cc3c(n2)CCN(Cc2ccc4c([nH]c(=O)c5c(C)cnn54)c2F)C3)cn1 [Example 10-1, 5-(5-((6-fluoro-3-methyl-4-oxo-4,5-dihydropyrazolo[1,5-a]quinoxalin-7-yl)methyl)-4,5,6,7-tetrahydro-2H-pyrazolo[4,3-c]pyridin-2-yl)-N-methylpicolinamide]
2 |  | > 100 | CNC(=O)c1ccc(-n2cc3c(n2)CCN(Cc2ccc4c([nH]c(=O)c5c(F)cnn54)c2F)C3)cn1 [Example 22, 5-(5-((3,6-difluoro-4-oxo-4,5-dihydropyrazolo[1,5-a]quinoxalin-7-yl)methyl)-4,5,6,7-tetrahydro-2H-pyrazolo[4,3-c]pyridin-2-yl)-N-methylpicolinamide]
3 |  | > 100 | CNC(=O)c1ccc(-n2cc3c(n2)CCN(Cc2ccc4c([nH]c(=O)c5c(F)cnn54)c2F)C3)c(F)n1 [Example 24, 5-(5-((3,6-difluoro-4-oxo-4,5-dihydropyrazolo[1,5-a]quinoxalin-7-yl)methyl)-4,5,6,7-tetrahydro-2H-pyrazolo[4,3-c]pyridin-2-yl)-6-fluoro-N-methylpicolinamide]
4 |  | > 100 | CNC(=O)c1ccc(-n2nc3c(c2C)CN(Cc2ccc4c([nH]c(=O)c5c(F)cnn54)c2F)C3)cn1 [Example 40, 5-(5-((3,6-difluoro-4-oxo-4,5-dihydropyrazolo[1,5-a]quinoxalin-7-yl)methyl)-3-methyl-5,6-dihydropyrrolo[3,4-c]pyrazol-2(4H)-yl)-N-methylpicolinamide]
5 |  | > 100 | CNC(=O)c1ccc(-n2cc3c(n2)CN(Cc2ccc4c([nH]c(=O)c5c(F)cnn54)c2F)C3)c(O)n1 [Example 17, 5-(5-((3,6-difluoro-4-oxo-4,5-dihydropyrazolo[1,5-a]quinoxalin-7-yl)methyl)-5,6-dihydropyrrolo[3,4-c]pyrazol-2(4H)-yl)-6-hydroxy-N-methylpicolinamide]
6 |  | 27.2 | CCNC(=O)c1ccc(-n2cc3c(n2)CN(Cc2ccc4c([nH]c(=O)c5c(C)cnn54)c2F)C3)c(F)n1 [Example 7, N-ethyl-6-fluoro-5-(5-((6-fluoro-3-methyl-4-oxo-4,5-dihydropyrazolo[1,5-a]quinoxalin-7-yl)methyl)-5,6-dihydropyrrolo[3,4-c]pyrazol-2(4H)-yl)picolinamide]
7 |  | 2.16 | CNC(=O)c1ccc(-c2cc3c(o2)CN(Cc2ccc4c([nH]c(=O)c5c(F)cnn54)c2F)C3)cn1 [Example 46, 5-(5-((3,6-difluoro-4-oxo-4,5-dihydropyrazolo[1,5-a]quinoxalin-7-yl)methyl)-5,6-dihydro-4H-furo[2,3-c]pyrrol-2-yl)-N-methylpicolinamide]
8 |  | 14.4 | CNC(=O)c1ccc(-c2cc3c(s2)CN(Cc2ccc4c([nH]c(=O)c5c(F)cnn54)c2F)C3)cn1 [Example 47, 5-(5-((3,6-difluoro-4-oxo-4,5-dihydropyrazolo[1,5-a]quinoxalin-7-yl)methyl)-5,6-dihydro-4H-thieno[2,3-c]pyrrol-2-yl)-N-methylpicolinamide]
9 |  | 0.65 | O=C(NC1CC1)c1ccc(-n2cc3c(n2)CN(Cc2ccc4c([nH]c(=O)c5c(F)cnn54)c2F)C3)cn1 [Example 20, 5-(5-((3,6-difluoro-4-oxo-4,5-dihydropyrazolo[1,5-a]quinoxalin-7-yl)methyl)-5,6-dihydropyrrolo[3,4-c]pyrazol-2(4H)-yl)-N-cyclopropylpicolinamide]
10 |  | 91 | CNC(=O)c1ccc(-n2cc3c(n2)CN(Cc2ccc4c([nH]c(=O)c5c(C)cnn54)c2F)C3)c(Cl)n1 [Example 4, 5-(5-((6-fluoro-3-methyl-4-oxo-4,5-dihydropyrazolo[1,5-a]quinoxalin-7-yl)methyl)-5,6-dihydropyrrolo[3,4-c]pyrazol-2(4H)-yl)-6-chloro-N-methylpicolinamide]
11 |  | 9.71 | CNC(=O)c1ccc(-n2cc3c(n2)CN(Cc2ccc4c([nH]c(=O)c5c(C)cnn54)c2F)C3)c(F)n1 [Example 3, 5-(5-((6-fluoro-3-methyl-4-oxo-4,5-dihydropyrazolo[1,5-a]quinoxalin-7-yl)methyl)-5,6-dihydropyrrolo[3,4-c]pyrazol-2(4H)-yl)-6-fluoro-N-methylpicolinamide]
12 |  | > 100 | CNC(=O)c1ccc(-n2cc3c(n2)CCN(Cc2ccc4c([nH]c(=O)c5c(F)cnn54)c2F)C3)c(C)n1 [Example 23, 5-(5-((3,6-difluoro-4-oxo-4,5-dihydropyrazolo[1,5-a]quinoxalin-7-yl)methyl)-4,5,6,7-tetrahydro-2H-pyrazolo[4,3-c]pyridin-2-yl)-N,6-dimethylpicolinamide]
13 |  | > 100 | CNC(=O)c1ccc(-c2nc3c(n2C)CN(Cc2ccc4c([nH]c(=O)c5c(F)cnn54)c2F)C3)cn1 [Example 44, 5-(5-((3,6-difluoro-4-oxo-4,5-dihydropyrazolo[1,5-a]quinoxalin-7-yl)methyl)-1-methyl-1,4,5,6-tetrahydropyrrolo[3,4-d]imidazol-2-yl)-N-methylpicolinamide]

The next lines start with the compound.

Row | Structure (SMILES) | IC50 [1] [nM] | IC50 (MDA-MB-436 cells) [nM]
14 | CCNC(=O)c1ccc(-n2cc3c(n2)CN(Cc2ccc4c([nH]c(=O)c5occc54)c2F)C3)cn1 [Example 53, N-ethyl-5-(5-((6-fluoro-4-oxo-4,5-dihydrofuro[2,3-c]quinolin-7-yl)methyl)-5,6-dihydropyrrolo[3,4-c]pyrazol-2(4H)-yl)picolinamide] | 157 | 1.21
15 | CNC(=O)c1ccc(-c2nc3c([nH]2)CN(Cc2ccc4c([nH]c(=O)c5c(C)cnn54)c2F)C3)cn1 [Example 34, 5-(5-((6-fluoro-3-methyl-4-oxo-4,5-dihydropyrazolo[1,5-a]quinoxalin-7-yl)methyl)-1,4,5,6-tetrahydropyrrolo[3,4-d]imidazol-2-yl)-N-methylpicolinamide] | 40 | 3.33
16 | CNC(=O)c1ccc(N2CC3CN(Cc4ccc5c([nH]c(=O)c6c(F)cnn65)c4F)CC3C2)c(F)n1 (centres unmarked) [Example 61, 5-(5-((3,6-difluoro-4-oxo-4,5-dihydropyrazolo[1,5-a]quinoxalin-7-yl)methyl)hexahydropyrrolo[3,4-c]pyrrol-2(1H)-yl)-6-fluoro-N-methylpicolinamide] |  | > 100
17 | CNC(=O)c1ccc(-n2cc3c(n2)CN(Cc2ccc4c([nH]c(=O)c5c(C)cnn54)c2F)C3)c(C)n1 [Example 2, 5-(5-((6-fluoro-3-methyl-4-oxo-4,5-dihydropyrazolo[1,5-a]quinoxalin-7-yl)methyl)-5,6-dihydropyrrolo[3,4-c]pyrazol-2(4H)-yl)-N,6-dimethylpicolinamide] |  | 57
18 | CNC(=O)c1ccc(N2CC3CN(Cc4ccc5c([nH]c(=O)c6c(C)cnn65)c4F)CC3C2)c(F)n1 (centres unmarked) [Example 64, 6-fluoro-5-(5-((6-fluoro-3-methyl-4-oxo-4,5-dihydropyrazolo[1,5-a]quinoxalin-7-yl)methyl)hexahydropyrrolo[3,4-c]pyrrol-2(1H)-yl)-N-methylpicolinamide] |  | > 100
19 | CNC(=O)c1ccc(-n2cc3c(c2)CN(Cc2ccc4c([nH]c(=O)c5c(F)cnn54)c2F)C3)c(F)n1 [Example 62, 5-(5-((3,6-difluoro-4-oxo-4,5-dihydropyrazolo[1,5-a]quinoxalin-7-yl)methyl)-5,6-dihydropyrrolo[3,4-c]pyrrol-2(4H)-yl)-6-fluoro-N-methylpicolinamide] | 278 | 0.44
20 | CNC(=O)c1ccc(-n2cc3c(n2)CN(Cc2ccc4c([nH]c(=O)c5c(C)cnn54)c2F)C3)c(O)n1 [Example 5, 5-(5-((6-fluoro-3-methyl-4-oxo-4,5-dihydropyrazolo[1,5-a]quinoxalin-7-yl)methyl)-5,6-dihydropyrrolo[3,4-c]pyrazol-2(4H)-yl)-6-hydroxy-N-methylpicolinamide] |  | > 100
21 | CNC(=O)c1ccc(-c2nc3c(s2)CN(Cc2ccc4c([nH]c(=O)c5c(C)cnn54)c2F)C3)cn1 [Example 33, 5-(5-((6-fluoro-3-methyl-4-oxo-4,5-dihydropyrazolo[1,5-a]quinoxalin-7-yl)methyl)-5,6-dihydro-4H-pyrrolo[3,4-d]thiazol-2-yl)-N-methylpicolinamide] |  | > 100
22 | CNC(=O)c1ccc(-c2nc3c(o2)CN(Cc2ccc4c([nH]c(=O)c5c(C)cnn54)c2F)C3)cn1 [Example 32, 5-(5-((6-fluoro-3-methyl-4-oxo-4,5-dihydropyrazolo[1,5-a]quinoxalin-7-yl)methyl)-5,6-dihydro-4H-pyrrolo[3,4-d]oxazol-2-yl)-N-methylpicolinamide] |  | 18.4
